Consider 2 molecules from US9433659B2, “Enhanced glycemic control using Ad36E4orf1 and AKT1 inhibitor” (priority 2012, dated 2016).

Common to all, as to assay type: cell-based
Assay [1] has as its system 3T3-L1 adipocytes. Description: Glucose uptake in 3T3-L1 adipocytes exposed to ATD. The following applies: null vector, 10 μM TZD; increasing concentration of ATD (0, 1 or 5 μM). As for the experimental part:
(§1) 3T3-L1 adipocytes were transfected with a null vector and exposed to 10 μM TZD, or transfected with a plasmid expressing E4orf1 protein. Both groups were exposed to 0, 1 or 5 μM ATD. […] The glucose uptake in adipocytes was PPARγ-dependent in the presence of TZD, but not when induced by E4orf1. Thus, by down-regulating AKT-1 signaling E4orf1 can be used to enhance glucose uptake by adipocytes, without further increasing lipid accumulation.

Assay [2] deals with 3T3-L1 cells. Description: Adipogenic differentiation by oil red O staining in inducible E4orf1 stable cell line. Particulars: 3T3-L1 cells expressing Ad36 E4orf1 on doxycycline; 0, 1, or 5 M of 2ATD; up to nine days. As for the experimental part: FIG. 7A-F are photomicrographs of 3T3-L1 cells. […] FIGS. 7D-F show 3T3-L1 cells that express Ad36 E4orf1 when exposed to doxycycline, treated with 0, 1, or 5 M, respectively, of 2ATD—a specific inhibitor of AKT1 signalling.
3T3-L1 cells that express Ad36 E4orf1 when exposed to doxycycline (10) were generated. […] Confluent E4orf1 and pTRE cells were exposed to adipogenic media to induce differentiation. In addition the cells were treated with 0, 1 or 5 M of 2ATD—a specific inhibitor of AKT1 signalling. This media was refreshed every two days for up to nine days. Adipogenic differentiation was verified by oil red O staining (FIGS. 7A-F).

Assay [3] relates to PPARγ. Description: PPARγ expression by qRT-PCR in E4orf1 and pTRE cells. As for the experimental part: (§2) Confluent E4orf1 and pTRE cells were exposed to adipogenic media to induce differentiation. In addition the cells were treated with 0 or 5 μM of 2ATD—a specific inhibitor of AKT1 signalling. This media was refreshed every two days for up to nine days. Basal and insulin stimulated 2DG uptake was determined 24 hours post induction in the presence of 1000 ng/ml of doxycycline expression of PPARγ and adiponectin—markers of adipogenesis, by qRT-PCR.

Assay [4] has as its system adiponectin. Description: Adiponectin expression by qRT-PCR in E4orf1 and pTRE cells. As to the method: as §2
Background: In qPCR the cycle at which signal appears reflects the starting amount.

In assay [5] the test system is PPARγ. Description: PPARγ protein abundance in 3T3-L1 adipocytes. The following applies: 0, 1 or 5 μM ATD. As to the method: FIG. 10 is a graph showing ATD inhibits PPARγ protein abundance. 3T3-L1 adipocytes were transfected with a null vector (V5), and exposed to 10 μM TZD, or transfected with a plasmid expressing E4orf1 protein. Both groups were exposed to […] ATD.
as §1

Assay [6] deals with E4orf1 and pTRE inducible stable cells. Description: Basal and insulin stimulated glucose (2DG) uptake in presence of 2-ATD. As for the experimental part:
E4orf1 and pTRE inducible stable cells were exposed to adipogenic media to induce differentiation and treated with 0 or 5 μM of 2-ATD. Basal and insulin stimulated 2DG was determined 24 hours after exposure to doxycycline (1000 ng/ml), in presence or absence of insulin (*p<0.05).

The mark [7] stands for this setting: E4orf1 expressing cells, 0 or 5 μM of 2ATD.
Where [8] appears, read: effect of E4orf1 expression (doxycycline 1000 ng/ml), qRT-PCR.

Take `Nc1nncs1` [2-ATD, 2-Aminothiadiazole]: in assay [1], the glucose uptake entry is listed as “significantly reduced glucose uptake”. For the same molecule, the “adipogenesis and lipid accumulation (oil red O staining)” value in assay [2] was “blocked adipogenesis and lipid accumulation”. Also, the PPARγ expression result is reported as “significantly reduced PPARγ expression” in assay [3] (setting [7]) and “significantly reduced PPARγ expression” in assay [3] (pTRE cells, 0 or 5 μM of 2ATD). In assay [4] (setting [7]), the adiponectin expression result was “significantly reduced”. The PPARγ protein abundance entry in assay [5] was “reduced PPARγ protein abundance”.

B1: E4orf1: Adenovirus-36 E4orf1 protein, SEQ ID NO:2; expressed in 3T3-L1 cells by doxycycline induction or plasmid (protein, listed as Human adenovirus)
chain: MAESLYAFIDSPGGIAPVQEGASNRYIFFCPESFHIPPHGVILLHLRVSVLVPTGYQGRFMALNDYHARGILTQSDVIFAGRRHDLSVLLFNHTDRFLYVREGHPVGTLLLERVIFPSVRIATLV
As for B1, the PPARγ expression entry in assay [3] (setting [8]) was “significantly increased the expression of PPARγ and adiponectin”. Also, in assay [4] (setting [8]), the adiponectin expression result was “significantly increased the expression of PPARγ and adiponectin”. The “glucose uptake (2DG) despite 2-ATD treatment” value in assay [6] (E4orf1 expressing cells treated with 5 μM of 2-ATD) is “continued to show significantly greater glucose uptake”. For the same molecule, in assay [6] (E4orf1 expression compared to pTRE, 24 hours after doxycycline (1000 ng/ml), basal and insulin stimulated), the “glucose uptake (2DG)” value was “increased glucose uptake compared to that in pTRE”.
